Publication PMC6214915, “Design of a novel cell-permeable chimeric peptide to promote wound healing” (Scientific Reports, 2018)
Converted amounts (≈) assume the structure as drawn. Peptide text beside a SMILES is read from it.

Experiments:
Micrococcus luteus = format: cell-based, Micrococcus luteus (DSM 20030); conditions: 6 h
Experimental: HaCaT (immortalized human keratinocytes) and HeLa (human cervix carcinoma) cells were cultured in sterile 10 cm petri dishes at 37 °C in a humidified atmosphere of 5% CO2. HaCaT cells were maintained in DMEM containing 4,500 mg/l glucose (DMEMg), 2 mM L-Gln and 10% FBS (fetal bovine serum). HeLa cells were grown in RPMI 1640 supplemented with 4 mM L-Gln and 10% FBS. Bacteria used were Micrococcus luteus (DSM 20030) and Salmonella typhimurium (TA 100). Mueller Hinton (MH) broth agar plates were used for maintenance und MH broth medium was used to carry out antimicrobial activity studies.
Antimicrobial activity of peptide conjugates against gram-positive and gram-negative bacteria was conducted using the p-iodonitrotetrazolium-chloride (INT) violet assay as previously described. INT is a tetrazolium-based reagent which is converted to a pink formazan dye in the presence of metabolically active bacteria.
In brief, M. luteus and S. typhimurium were cultured in MH broth overnight at 37 °C while mild shaking (180 rpm). Overnight-cultured bacteria were added into fresh medium, grown to an optical density of 0.7 at 600 nm and 10 µl bacterial solution were added in triplicate to wells of a 96-well plate (BD Falcon, USA). […] The viability of bacteria relative to untreated bacteria was determined by measuring the absorption at 540 nm on a Tecan infinite M200 plate reader.

Salmonella typhimurium = conditions: 6 h
Experimental: Antimicrobial activity of peptide conjugates against gram-positive and gram-negative bacteria was conducted using the p-iodonitrotetrazolium-chloride (INT) violet assay as previously described[33].
In brief, M. luteus and S. typhimurium were cultured in MH broth overnight at 37 °C while mild shaking (180 rpm). Overnight-cultured bacteria were added into fresh medium, grown to an optical density of 0.7 at 600 nm and 10 µl bacterial solution were added in triplicate to wells of a 96-well plate (BD Falcon, USA). The peptides used at various concentrations and 180 µl of MH medium were added to each corresponding well and incubated for 6 h at 37 °C. 10 µM chloramphenicol served as positive control and H20 was used as negative control. After incubation time, 10 μl of the freshly prepared INT solution (1 mg/ml in DMSO) were added to each well and incubated for further 30 min at 37 °C. The viability of bacteria relative to untreated bacteria was determined by measuring the absorption at 540 nm on a Tecan infinite M200 plate reader.

[1] = tested on: human keratinocytes HaCaT; assay: MTT cell viability assay on HaCaT keratinocytes; format: cell-based; conditions: 24 h, 37 °C; for Effect on HaCaT cells at higher concentrations: >50 µM; for Cytotoxic effect on keratinocytes viability: 10 to 100 µM, serum-free medium, triplicate, n = 3
Experimental: Figure 2 Cytotoxic profile of peptides against human keratinocytes HaCaT. Cells were incubated with indicated concentrations of peptides at 37 °C for 24 h. Cell viability of HaCaT cells was determined by MTT assay relative to untreated cells (set to 100%). As positive control, cells were treated with 70% EtOH for 10 min. Experiments were conducted in triplicate with n = 3. Error bars represent standard deviation. (**p < 0.01; ***p < 0.001).
The toxic effect of the investigated peptides on HaCaT cells was evaluated using the [3(4,5-dimethylthiazol-2yl)2,5-diphenyltetrazolium bromide] (MTT) colorimetric method. MTT is a tetrazolium salt which is reduced to a purple colored formazan product by mitochondrial reductases, present only in metabolically active cells. Keratinocytes were seeded onto a 96-well microtiter plate at a density of 8 × 10^4 cells per well in DMEMg supplemented with 2 mM L-Gln and 2% FBS. After reaching 70–80% confluency, the medium was removed and cells were incubated at 37 °C for 24 h with peptides at different concentrations ranging from 10 to 100 µM (in serum-free medium). After 24 h of incubation, 10 µl of MTT (in PBS, 0.45 mg/ml final) were added to each well. After 4 h incubation, the supernatants were removed and the formazan crystals were dissolved by adding 100 μl of dimethyl sulfoxide (DMSO). For the positive control, cells were treated with 70% EtOH for 10 min. The absorption was measured at 570 nm and at a reference wavelength of 630 nm using Tecan infinite M200 plate reader.

HaCaT cells = assay: Cellular uptake of CF-labeled peptides into HaCaT cells (flow cytometry and confocal microscopy); format: cell-based, human; conditions: 10 µM CF-labeled peptides, 30 min, 37 °C, confocal microscopy
Experimental: Cells were seeded in a µ-slide 8-well (Ibidi) plate (HaCaT 90,000; HeLa 45,000) and grown to 70–80% confluency. Then, the cells were incubated with CF-labeled peptides in serum-free medium for the requested time at either 4 °C or 37 °C as indicated. The nuclei were stained for 10 min with 0.6 µl Hoechst 33342 nuclear dye (bisbenzimide H33342, 1 mg/ml in H2O, sterile filtered) prior to the end of peptide incubation. Finally, the solutions were removed and cells were treated for 30 s with trypan blue (150 µM in 0.1 M acetate buffer, pH 4.15) for quenching external fluorescence. After washing twice with PBS, 300 µl of FBS-containing growth medium were added to each well. Images were taken by using a Nikon Eclipse Ti confocal laser scanning microscope equipped with a 60x oil-immersion objective (N.A. 1.4, Plan APO VC, Nikon). Images were recorded with Nikon EZ-C1 software and adjusted equally with ImageJ software.
For treatment with endocytosis inhibitor, 80 µM of dynasore (in serum-free medium, Sigma-Aldrich) was added to the cells. After 1 h of incubation at 37 °C, CF-labeled peptide solution (in serum-free medium, 10 µM final) was added and incubated for further 30 min. Afterwards, the cells were handled as described above.
Cells were seeded in triplicate in a 24-well plate (HaCaT 370,000; HeLa 170,000) and grown to 70–80% confluency under normal growth conditions. […]

[2] = cited from earlier work
From the text: Therefore, it was particularly interesting whether the combination of both, Tylotoin ...

[3] = Circular dichroism spectroscopy (secondary structure); format: physicochemical; conditions: for Percentage of the α-helix content: phosphate buffer / Percentage of the α-helix content: 50% TFE: CD, 20 µM peptide, calculated from ellipticity at 222 nm; for Percentage of the α-helix content: phosphate buffer: 10 mM phosphate buffer pH 7.0, 20 °C; for Percentage of the α-helix content: 50% TFE: 10 mM phosphate buffer pH 7.0 with 50% TFE, 20 °C; for R-value: ratio between molar ellipticity values at 222 and 208 nm, in the presence of 50% TFE, R = 1 perfect α-helix
Experimental: Figure 1 Structural characteristics of investigated peptides. CD spectra were acquired at a peptide concentration of 20 µM in 10 mM phosphate buffer, pH 7.0 (A) and in the additional presence of 50% TFE (B). The percentage of the α-helix content was calculated from the ellipticity value at 222 nm using the following formula: (% α-helix = ((([Θ222]−3000)⁄(−36000−3000)) × 100)[47] (C). R-values represent the ratio between the molar ellipticity values at 222 and 208 nm[20] and R = 1 defined as hallmark for a perfectly built α-helix[48]. Helical wheel projections of Tylotoin-sC18* and sC18*-Tylotoin predicted by HeliQuest (D). TEXT PRINTED IN THE PICTURE: (C) Tylotoin-sC18: Percentage of the α-helix content: phosphate buffer: 12.1; Percentage of the α-helix content: 50% TFE: 46.3; R-value: 0.85 | (C) sC18-Tylotoin: Percentage of the α-helix content: phosphate buffer: 13.1; Percentage of the α-helix content: 50% TFE: 43.5; R-value: 0.87 | (C) Tylotoin-sC18*: Percentage of the α-helix content: phosphate buffer: 10.7; Percentage of the α-helix content: 50% TFE: 46.3; R-value: 0.77 | (C) sC18*-Tylotoin: Percentage of the α-helix content: phosphate buffer: 6.9; Percentage of the α-helix content: 50% TFE: 40.5; R-value: 0.74 | (C) Tylotoin: Percentage of the α-helix content: phosphate buffer: 15.6; Percentage of the α-helix content: 50% TFE: 25.0; R-value: 0.51
CD spectra were recorded from 180 nm to 270 nm in 0.5 nm intervals at 20 °C using a JASCO J-715 spectropolarimeter in an N2 atmosphere. The CD spectra were measured using a 1 mm quartz cuvette and the instrument parameters were set as follows: sensitivity, 100 mdeg; scan mode, continuous; scan speed, 50 nm/min; response time, 2 sec and bandwidth, 1.0 nm. Peptides were dissolved in 10 mM potassium phosphate buffer (pH 7.0) containing either 0 or 50% (v/v) trifluoroethanol (TFE) to a final peptide concentration of 20 µM.

HeLa cells = assay: Resazurin-based cell viability assay on HeLa cells; design: species or system human; conditions: 24 h, serum-free RPMI, triplicate, n = 3
Experimental: Figure 9 The efficacy of Tylotoin-sC18* towards cancer cells. Microscopic image of HeLa cells treated for 30 min with CF-labeled Tylotoin-sC18* (10 µM, green) at 37 °C (A). Quantification of the cellular uptake of 10 µM CF-labeled peptides for 30 min at 37 °C by flow cytometry (B). Cell viability of HeLa cells after treatment for 24 h with Tylotoin-sC18*, sC18* and Tylotoin, respectively (C). Cells treated with 70% ethanol served as positive control. Data are normalized to untreated cells (100% cell viability). Experiments were performed in triplicate with n = 3. Error bars represent standard deviation. (*p < 0.05).
For a resazurin-based cell viability assay, HeLa cells were seeded onto a 96-well plate, grown to 70–80% confluency and incubated with various concentrations of peptides in serum-free RPMI growth medium for 24 h under standard growth conditions. For the positive control, cells were treated with 70% EtOH for 10 min. After washing with serum-free medium, resazurin solution (10% in serum-free media, v/v) was incubated with the cells for 1 h at 37 °C. Subsequently, cell viability was determined relative to untreated cells by measurement of the resorufin product at 595 nm (λex = 550 nm) on a Tecan infinite M200 plate reader.

[4] = cited from earlier work; remark: listed apart in the source
From the text: So far, very few studies have been conducted for the use of CPPs in the application field of human skin wound healing[12]–[14]. Thus, to our knowledge, we report for the first time on the fusion of a well-characterized cell penetrating peptide, namely sC18, to a wound healing promoting peptide sequence Tylotoin. This latter short peptide was recently identified and isolated from the skin of the salamander Tylototriton verrucosus. […] More precisely, Tylotoin ...

Compound | Effect on HaCaT cells at higher concentrations [1] | Antimicrobial activity [2] | Percentage of the α-helix content: phosphate buffer [3] [%] | Percentage of the α-helix content: 50% TFE [3] [%] | R-value [3] | Cytotoxic effect on keratinocytes viability [1] | other results
CC(C)C[C@H](NC(=O)CNC(=O)[C@H](CCCCN)NC(=O)[C@H](CS)NC(=O)[C@@H](NC(=O)[C@H](CCCNC(=N)N)NC(=O)[C@H](CCCCN)NC(=O)[C@H](CC(N)=O)NC(=O)[C@H](CC(N)=O)NC(=O)[C@H](CCC(N)=O)NC(=O)[C@H](CCCNC(=N)N)NC(=O)[C@@H](NC(=O)[C@H](CS)NC(=O)[C@@H](N)CCCCN)C(C)C)C(C)C)C(=O)N[C@@H](CCCNC(=N)N)C(=O)N[C@@H](CCCCN)C(=O)N[C@@H](CCCNC(=N)N)C(=O)N[C@@H](CC(C)C)C(=O)N[C@@H](CCCNC(=N)N)C(=O)N[C@@H](CCCCN)C(=O)N[C@@H](Cc1ccccc1)C(=O)N[C@@H](CCCNC(=N)N)C(=O)N[C@@H](CC(N)=O)C(=O)N[C@@H](CCCCN)C(N)=O [Tylotoin-sC18*] (H-KCVRQNNKRVCKGLRKRLRKFRNK-NH2; N-terminus assumed) |  |  |  |  |  |  | MIC value (Micrococcus luteus): 13.47 µM (≈ 40.8 µg/mL); MIC value (Salmonella typhimurium; murium): ~ 12.64 µM
GLRKRLRKFRNKIKEK-NH2 [sC18, cell penetrating peptide recently developed in the authors' group; control peptide] | negatively affect the cells | moderate antimicrobial activities |  |  |  |  | Intracellular distribution in keratinocytes (HaCaT cells): some nuclear uptake was visible
GLRKRLRKFRNKIKEKKCVRQNNKRVCK-NH2 [sC18-Tylotoin, chimeric peptide, CPP sC18 fused N-terminally to Tylotoin] | negatively affect the cells |  | 13.1 | 43.5 | 0.87 |  | 
GLRKRLRKFRNKKCVRQNNKRVCK-NH2 [sC18*-Tylotoin, chimeric peptide, CPP sC18* fused N-terminally to Tylotoin] |  |  | 6.9 | 40.5 | 0.74 | slight decrease in cell viability | Difference in relative cell viability between sC18* and sC18*-Tylotoin [1]: about 40%
KCVRQNNKRVCK-NH2 [Tylotoin, wound healing promoting peptide from skin of the salamander Tylototriton verrucosus; made as C-terminal amide without disulfide bridge, reference compound] |  | did not show any antimicrobial activity | 15.6 | 25.0 | 0.51 | no cytotoxic effect at all | Proliferation of HaCaT cells [1]: enhance the proliferation; Antimicrobial activity against M. luteus (Micrococcus luteus; INT assay, 37 °C): no antimicrobial activity; Cell viability of HeLa cells (HeLa cells): remained unharmed; Antimicrobial activity against S. typhimurium (Salmonella typhimurium; INT assay, 37 °C): no antimicrobial activities; Wound healing in a murine model [4]: promote wound healing similar to hEGF
KCVRQNNKRVCKGLRKRLRKFRNKIKEK-NH2 [Tylotoin-sC18, chimeric peptide, CPP sC18 fused to the C-terminus of Tylotoin] |  |  | 12.1 | 46.3 | 0.85 | no cytotoxic effect at all | 
